{"source": "ChEMBL document CHEMBL1141955", "about": "“Geometric diversity through permutation of backbone configuration in cyclic peptide libraries” (Bioorg Med Chem Lett, 2005)", "target": "Actin, cytoplasmic 1 (Xenopus laevis, UniProt O93400)", "test": "Inhibitory activity against actin assembly in xenopus by polymerisation assay; call rule not given here"}
{"compound": "NCCCC[C@@H]1NC(=O)[C@H](CCC(N)=O)NC(=O)[C@H]2CCCN2C(=O)[C@H](Cc2ccccc2)NC(=O)[C@@H](Cc2ccccc2)NC(=O)[C@H]2CCCN2C(=O)[C@@H](Cc2ccccc2)NC1=O", "values": [{"measurement": "IC50", "result": "Not Active"}]}
{"compound": "NCCCC[C@@H]1NC(=O)[C@H](CCC(N)=O)NC(=O)[C@H]2CCCN2C(=O)[C@H](Cc2ccccc2)NC(=O)[C@@H](Cc2ccccc2)NC(=O)[C@H]2CCCN2C(=O)[C@@H](Cc2ccccc2)NC(=O)[C@H](CCCCN)NC(=O)[C@H](CCC(N)=O)NC(=O)[C@H]2CCCN2C(=O)[C@H](Cc2ccccc2)NC(=O)[C@@H](Cc2ccccc2)NC(=O)[C@H]2CCCN2C(=O)[C@@H](Cc2ccccc2)NC1=O", "values": [{"measurement": "IC50", "setting": "read-out: IC50", "result": 2, "unit": "µM"}]}
